Tested on: 186277-243-T-J2-PDC multi-cell spheroid viability
Assay: Anticancer human tumor 186277-243-T-J2-PDC patient-derived colon adenocarcinoma cell line growth inhibition [PI3K]
Conditions: for IC50: curve of first compound; for viability, T/C: stronger effect = lower value
Method in brief: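 Spheroid viability read-out. Co-cultures contained the tumor line plus HUVEC and human MSCs. Each agent was paired with a PI3K inhibitor (inavolisib, alpelisib, duvelisib, copanlisib) across half-log dilutions starting at clinical Cmax, or at 10 microM when Cmax was unknown.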

[1] = second compound 0.00316 µM, first compound 0.0316 µM
[2] = second compound 0.00316 µM, first compound 0.1 µM
[3] = second compound 0.00316 µM, first compound 0.316 µM
[4] = second compound 0.00316 µM, first compound 1 µM
[5] = second compound 0.00316 µM, first compound 3.16 µM
[6] = second compound 0.00316 µM, first compound 10 µM
[7] = second compound 0.01 µM, first compound 0.0316 µM
[8] = second compound 0.01 µM, first compound 0.1 µM
[9] = second compound 0.01 µM, first compound 0.316 µM
[10] = second compound 0.01 µM, first compound 1 µM
[11] = second compound 0.01 µM, first compound 3.16 µM
[12] = second compound 0.01 µM, first compound 10 µM
[13] = second compound 0.0316 µM, first compound 0.0316 µM
[14] = second compound 0.0316 µM, first compound 0.1 µM
[15] = second compound 0.0316 µM, first compound 0.316 µM
[16] = second compound 0.0316 µM, first compound 1 µM
[17] = second compound 0.0316 µM, first compound 3.16 µM
[18] = second compound 0.0316 µM, first compound 10 µM
[19] = second compound 0.1 µM, first compound 0.0316 µM
[20] = second compound 0.1 µM, first compound 0.1 µM
[21] = second compound 0.1 µM, first compound 0.316 µM
[22] = second compound 0.1 µM, first compound 1 µM
[23] = second compound 0.1 µM, first compound 3.16 µM
[24] = second compound 0.1 µM, first compound 10 µM
[25] = second compound 0.316 µM, first compound 0.0316 µM
[26] = second compound 0.316 µM, first compound 0.1 µM
[27] = second compound 0.316 µM, first compound 0.316 µM
[28] = second compound 0.316 µM, first compound 1 µM
[29] = second compound 0.316 µM, first compound 3.16 µM
[30] = second compound 0.316 µM, first compound 10 µM
[31] = second compound 1 µM, first compound 0.0316 µM
[32] = second compound 1 µM, first compound 0.1 µM
[33] = second compound 1 µM, first compound 0.316 µM
[34] = second compound 1 µM, first compound 1 µM
[35] = second compound 1 µM, first compound 3.16 µM
[36] = second compound 1 µM, first compound 10 µM
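Note: spheroids exposed to compounds for seven days before viability reading.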
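Throughout, for viability, T/C: 100% = DMSO vehicle control viability.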

C#Cc1c(F)ccc2cc(O)cc(-c3ncc4c(N5CC6CCC(C5)N6)nc(OCC56CCCN5CC(F)C6)nc4c3F)c12 (stereo not drawn) + COc1c(OCCCN2CCOCC2)ccc2c3n(c(=NC(=O)c4cnc(N)nc4)nc12)CCN3 was tested, and the IC50 (second compound 0.00316 µM) was 65.3 nM, the IC50 (second compound 0.01 µM) was < 31.6 nM and the IC50 (second compound 0.0316 µM) was < 31.6 nM. For the same molecule, the IC50 (second compound 0.1 µM) was < 31.6 nM, the IC50 (second compound 0.316 µM) was < 31.6 nM and the IC50 (second compound 1 µM) was < 31.6 nM. The viability, T/C [1] was 78.4%, the viability, T/C [2] was 32.4% and the viability, T/C [3] was 17.5%. The viability, T/C [4] was 8.98%, the viability, T/C [5] was 9.36% and the viability, T/C [6] was 6.51%. It also gave a viability, T/C [7] of 47.8%, a viability, T/C [8] of 20.9% and a viability, T/C [9] of 13.7%. It also gave a viability, T/C [10] of 10.1%, a viability, T/C [11] of 8.35% and a viability, T/C [12] of 5.59%. It also gave a viability, T/C [13] of 16.9%, a viability, T/C [14] of 7.55% and a viability, T/C [15] of 10.6%. The viability, T/C [16] was 3.62%, the viability, T/C [17] was 3.8% and the viability, T/C [18] was 4.03%. For the same molecule, the viability, T/C [19] was 5.72%, the viability, T/C [20] was 4.46% and the viability, T/C [21] was 3%. For the same molecule, the viability, T/C [22] was 3.2%, the viability, T/C [23] was 1.5% and the viability, T/C [24] was 0.18%. It also gave a viability, T/C [25] of 3.44%, a viability, T/C [26] of 0.58% and a viability, T/C [27] of 0.7%. The viability, T/C [28] was 0.32%, the viability, T/C [29] was 0.85% and the viability, T/C [30] was 0.1%. The viability, T/C [31] was 0.56%, the viability, T/C [32] was 0.38% and the viability, T/C [33] was 0.53%. For the same molecule, the viability, T/C [34] was 0.17%, the viability, T/C [35] was 0.22% and the viability, T/C [36] was 0.16%.
CC(Cn1ccc(-c2ccc(C#N)c(Cl)c2)n1)NC(=O)c1cc(C(C)O)[nH]n1 (stereo not drawn) + COc1c(OCCCN2CCOCC2)ccc2c3n(c(=NC(=O)c4cnc(N)nc4)nc12)CCN3 was tested, and the IC50 (second compound 0.00316 µM) was > 10000 nM, the IC50 (second compound 0.01 µM) was > 10000 nM and the IC50 (second compound 0.0316 µM) was > 10000 nM. For the same molecule, the IC50 (second compound 0.1 µM) was < 31.6 nM, the IC50 (second compound 0.316 µM) was < 31.6 nM and the IC50 (second compound 1 µM) was < 31.6 nM. The viability, T/C [1] was 94.2%, the viability, T/C [2] was 92.1% and the viability, T/C [3] was 101%. For the same molecule, the viability, T/C [4] was 105%, the viability, T/C [5] was 116% and the viability, T/C [6] was 86.9%. The viability, T/C [7] was 99.2%, the viability, T/C [8] was 100% and the viability, T/C [9] was 101%. The viability, T/C [10] was 108%, the viability, T/C [11] was 93.3% and the viability, T/C [12] was 90.1%. It also gave a viability, T/C [13] of 74.7%, a viability, T/C [14] of 74.9% and a viability, T/C [15] of 69.2%. For the same molecule, the viability, T/C [16] was 70.9%, the viability, T/C [17] was 75.5% and the viability, T/C [18] was 58%. For the same molecule, the viability, T/C [19] was 16.7%, the viability, T/C [20] was 17.3% and the viability, T/C [21] was 17.4%. For the same molecule, the viability, T/C [22] was 15.9%, the viability, T/C [23] was 19% and the viability, T/C [24] was 17%. For the same molecule, the viability, T/C [25] was 6.31%, the viability, T/C [26] was 6.68% and the viability, T/C [27] was 3.61%. The viability, T/C [28] was 6.24%, the viability, T/C [29] was 6.1% and the viability, T/C [30] was 4.81%. For the same molecule, the viability, T/C [31] was 3.61%, the viability, T/C [32] was 3.8% and the viability, T/C [33] was 2.93%. It also gave a viability, T/C [34] of 2.25%, a viability, T/C [35] of 3.36% and a viability, T/C [36] of 2.45%.
In the case of CC1(C)CCC(Nc2ncc(C(F)(F)F)c(-c3c[nH]c4c(P(C)(C)=O)c(C#N)ccc34)n2)CN1 (stereo not drawn) + COc1c(OCCCN2CCOCC2)ccc2c3n(c(=NC(=O)c4cnc(N)nc4)nc12)CCN3, the IC50 (second compound 0.00316 µM) is reported as 3590 nM, the IC50 (second compound 0.01 µM) is reported as 1230 nM and the IC50 (second compound 0.0316 µM) is reported as < 31.6 nM. The IC50 (second compound 0.1 µM) was < 31.6 nM, the IC50 (second compound 0.316 µM) was < 31.6 nM and the IC50 (second compound 1 µM) was < 31.6 nM. The viability, T/C [1] was 64.8%, the viability, T/C [2] was 57.4% and the viability, T/C [3] was 52%. The viability, T/C [4] was 55.4%, the viability, T/C [5] was 56.2% and the viability, T/C [6] was 0.33%. For the same molecule, the viability, T/C [7] was 71.5%, the viability, T/C [8] was 54.7% and the viability, T/C [9] was 50.8%. It also gave a viability, T/C [10] of 54.1%, a viability, T/C [11] of 40.6% and a viability, T/C [12] of 0.85%. It also gave a viability, T/C [13] of 37.3%, a viability, T/C [14] of 36.6% and a viability, T/C [15] of 26.8%. For the same molecule, the viability, T/C [16] was 25.9%, the viability, T/C [17] was 14.5% and the viability, T/C [18] was 1.27%. The viability, T/C [19] was 7.6%, the viability, T/C [20] was 10.5% and the viability, T/C [21] was 7.54%. It also gave a viability, T/C [22] of 6.56%, a viability, T/C [23] of 5.27% and a viability, T/C [24] of 1.02%. For the same molecule, the viability, T/C [25] was 2.73%, the viability, T/C [26] was 3.91% and the viability, T/C [27] was 3.66%. It also gave a viability, T/C [28] of 3.38%, a viability, T/C [29] of 1.31% and a viability, T/C [30] of 0.34%. The viability, T/C [31] was 2.08%, the viability, T/C [32] was 1.57% and the viability, T/C [33] was 1.5%. It also gave a viability, T/C [34] of 1.26%, a viability, T/C [35] of 1.04% and a viability, T/C [36] of 0.42%.
In the case of Cn1cnc2c(F)c(Nc3ccc(Br)cc3Cl)c(C(=O)NOCCO)cc21 + Cc1nc(NC(=O)N2CCCC2C(N)=O)sc1-c1ccnc(C(C)(C)C(F)(F)F)c1, the IC50 (second compound 0.0316 µM) is reported as 117 nM, the IC50 (second compound 0.1 µM) is reported as 66.7 nM and the IC50 (second compound 0.316 µM) is reported as 34.1 nM. For the same molecule, the IC50 (second compound 1 µM) was < 9.49 nM, the IC50 (second compound 3.16 µM) was < 9.49 nM and the IC50 (second compound 10 µM) was < 9.49 nM. It also gave a viability, T/C (second compound 0.0316 µM, first compound 0.00949 µM) of 107%, a viability, T/C (second compound 0.0316 µM, first compound 0.03 µM) of 80.3% and a viability, T/C (second compound 0.0316 µM, first compound 0.0949 µM) of 52.4%. The viability, T/C (second compound 0.0316 µM, first compound 0.3 µM) was 34.5%, the viability, T/C (second compound 0.0316 µM, first compound 0.949 µM) was 16.1% and the viability, T/C (second compound 0.0316 µM, first compound 3 µM) was 6.83%. For the same molecule, the viability, T/C (second compound 0.1 µM, first compound 0.00949 µM) was 100%, the viability, T/C (second compound 0.1 µM, first compound 0.03 µM) was 67.8% and the viability, T/C (second compound 0.1 µM, first compound 0.0949 µM) was 42.1%. For the same molecule, the viability, T/C (second compound 0.1 µM, first compound 0.3 µM) was 25.4%, the viability, T/C (second compound 0.1 µM, first compound 0.949 µM) was 13% and the viability, T/C (second compound 0.1 µM, first compound 3 µM) was 9.02%. The viability, T/C (second compound 0.316 µM, first compound 0.00949 µM) was 76.8%, the viability, T/C (second compound 0.316 µM, first compound 0.03 µM) was 53.5% and the viability, T/C (second compound 0.316 µM, first compound 0.0949 µM) was 28.9%. It also gave a viability, T/C (second compound 0.316 µM, first compound 0.3 µM) of 18.5%, a viability, T/C (second compound 0.316 µM, first compound 0.949 µM) of 8.47% and a viability, T/C (second compound 0.316 µM, first compound 3 µM) of 3.53%. The viability, T/C (second compound 1 µM, first compound 0.00949 µM) was 48.1%, the viability, T/C (second compound 1 µM, first compound 0.03 µM) was 28.6% and the viability, T/C (second compound 1 µM, first compound 0.0949 µM) was 16.6%. For the same molecule, the viability, T/C (second compound 1 µM, first compound 0.3 µM) was 5.87%, the viability, T/C (second compound 1 µM, first compound 0.949 µM) was 4.04% and the viability, T/C (second compound 1 µM, first compound 3 µM) was 1.48%. The viability, T/C (second compound 3.16 µM, first compound 0.00949 µM) was 23%, the viability, T/C (second compound 3.16 µM, first compound 0.03 µM) was 10.6% and the viability, T/C (second compound 3.16 µM, first compound 0.0949 µM) was 5.72%. It also gave a viability, T/C (second compound 3.16 µM, first compound 0.3 µM) of 3.73%, a viability, T/C (second compound 3.16 µM, first compound 0.949 µM) of 2.72% and a viability, T/C (second compound 3.16 µM, first compound 3 µM) of 0.62%. The viability, T/C (second compound 10 µM, first compound 0.00949 µM) was 3.43%, the viability, T/C (second compound 10 µM, first compound 0.03 µM) was 3.24% and the viability, T/C (second compound 10 µM, first compound 0.0949 µM) was 1.7%. The viability, T/C (second compound 10 µM, first compound 0.3 µM) was 2.06%, the viability, T/C (second compound 10 µM, first compound 0.949 µM) was 1.21% and the viability, T/C (second compound 10 µM, first compound 3 µM) was 0.89%.
